Laboratory results from patent publication US7338778B2, “Luminescent method for determining cell oxygen consumption” (Becton, Dickinson and Company, priority 1991, dated 2008).
Converted amounts (≈) assume the structure as drawn.

Tests used:
Format in all cases: cell-based
[1] = test system: E. coli (ATCC #25922); assay: Effect of antibiotics on E. coli, Ru(DPP)3Cl2 indicator tray (Example 8); conditions: for Relative Fluorescence at 4 hrs.: 1×10^7 CFU/ml, 37° C.
Method: (§1) A 0.5 McFarland suspension of E. coli (ATCC #25922) in Broth A (see Example 1) was prepared using an A-Just nephelometer. […] The trays were incubated at 37° C. for 4 hours and their fluorescence measured in a Fluoroskan II fluorometer.
The fluorescent compound tris 4,7-diphenyl-1,10-phenanthroline ruthenium (II) chloride (Ru(DPP)3Cl2) was synthesized using the procedure of Watts and Crosby (J. Am.Chem. Soc. 93, 3184(1971)). A total of 3.6 mg of the compound was dissolved in 2.0 ml dimethyl sulfoxide (D-5879, Sigma Chemical, St. Louis, Mo.) and the resultant solution was then added slowly, with stirring, to 1300 ml silicone rubber forming solution (Water Based Emulsion #3-5024, Dow Corning, Midland, Mich.). A 35 microliter aliquot of the mixture was subsequently dispensed into each well of a 96 well, flat bottom, white microtiter tray (#011-010-7901, Dynatech, Chantilly, Va.), and the system was subsequently cured overnight in a low humidity (less than 25% RH), 60° C. incubator. After curing, the trays were washed by either soaking or by filling and emptying each well several times with each of the following reagents; a) absolute ethanol, b) 0.1 M phosphate buffer pH 7.2, c) hot distilled water (about 45° C.) and d) ambient temperature distilled water.

[2] = test system: E. coli (ATCC #25922); assay: Effect of antibiotics on oxygen consumption of E. coli, Ru(BiPy)3Cl2 indicator tray (Example 9); conditions: for Relative Fluorescence at 4 hrs.: 1×10^7 CFU/ml, 37° C.
Method: A 96 well Microtiter tray was produced essentially as in Example 1, except that tris-(2,2′ bipyridyl)-ruthenium (II) chloride hexahydrate (Aldrich Chemical Company, Milwaukee, Wis.) [Ru(BiPy)3Cl2] was substituted for Ru(DPP)3Cl2 in the silicone mixture. A second tray containing 9,10-diphenyl anthracene (DPA) was also prepared. All wells were charged with 150 ul of 1×10^7 CFU/ml E. coli (ATCC #25922) in broth. Table 3 lists the results at 0, 1, 2, 3, and 4 hours after addition of organisms.
as §1

[3] = test system: E. coli (ATCC #11775); assay: Effect of open and closed systems on oxygen measurements with cefuroxime (Example 11); conditions: 4 and 8 ug/ml, 5 hours, 37° C.
Method: A 96 well indicator microtiter tray was produced substantially as in Example 1. Duplicate wells in the tray were supplemented with the antibiotic cefuroxime in the concentration range of 0.25 to 32 ug/ml. One hundred and fifty microliters of a suspension of E. coli (ATCC #11775) was added to the wells to yield about 3×10^7 CFU/ml. One of each duplicate well was overlaid with mineral oil to inhibit diffusion of oxygen into the wells, the other duplicate was left open to the air. […] This difference is due, presumably to the time lag needed for the antibiotic to affect the organism; it is believed that during this time the oxygen is brought to an artificially low level by the ongoing metabolic activity of the organisms.

[4] = test system: E. coli (ATCC #25922); assay: Visual reading of indicator tray fluorescence without a fluorometer (Example 13); conditions: E. coli #25922, 1×10^7 CFU/ml, 4 hours at 37° C., UV transilluminator
Method: (§2) The trays were incubated for 4 hours at 37° C. and subsequently placed on the stage of an ultraviolet transilluminator (#TX-365A, Spectronics Corp., Westbury, N.Y.) which served as an excitation source.

[5] = test system: Ps. aeruginosa (BDMS Culture collection #N111); assay: as above; conditions: 1×10^7 CFU/ml, 4 hours at 37° C., UV transilluminator
Method: as §2

[6] = test system: Ps. aeruginosa (BDMS Culture collection #N111); assay: Overnight microdilution antimicrobial susceptibility test (reference MIC); conditions: Pseudomonas aeruginosa
[7] = test system: E. coli (ATCC #25922); assay: as above; conditions: Escherichia coli, ATCC25922; E. coli #25922, overnight microdilution
[8] = test system: E. coli (ATCC #25922); assay: Effect of antibiotics on oxygen consumption of E. coli, DPA indicator tray (Example 10); conditions: for Relative Fluorescence at 4 hrs.: 1×10^7 CFU/ml, 37° C.
[9] = all concentrations (0.5 to 8 ug/ml), 4 hours

For CO/N=C(\C(=O)N[C@@H]1C(=O)N2C(C(=O)O)=C(COC(N)=O)CS[C@H]12)c1ccco1 [Cefuroxime, cefuroxime], the “susceptibility of E. coli by fluorescence counts” value (“susceptibility of E. coli” for short) [1, 9] was “resistant”, the “Relative Fluorescence at 4 hrs.” value ([1]; antibiotic 0.5 ug/mL) was 7902 and the “Relative Fluorescence at 4 hrs.” value ([1]; antibiotic 1 ug/mL) was 7983. For the same compound, the “Relative Fluorescence at 4 hrs.” value ([1]; antibiotic 2 ug/mL) was 7161, the “Relative Fluorescence at 4 hrs.” value ([1]; antibiotic 4 ug/mL) was 7598 and the “Relative Fluorescence at 4 hrs.” value ([1]; antibiotic 8 ug/mL) was 6469. For the same compound, the “susceptibility of E. coli” value [2, 9] was “resistant”, the “Relative Fluorescence at 4 hrs.” value ([2]; antibiotic 0.5 ug/mL) was 1155 and the “Relative Fluorescence at 4 hrs.” value ([2]; antibiotic 1 ug/mL) was 1539. The “Relative Fluorescence at 4 hrs.” value ([2]; antibiotic 2 ug/mL) was 1183, the “Relative Fluorescence at 4 hrs.” value ([2]; antibiotic 4 ug/mL) was 1170 and the “Relative Fluorescence at 4 hrs.” value ([2]; antibiotic 8 ug/mL) was 1194. The “effect on oxygen consumption by fluorescence as percent of growth control” value ([3]; closed system overlaid with mineral oil) was “did not show an effect on oxygen consumption”, the “susceptibility of organism by fluorescence as percent of growth control” value ([3]; wells with no mineral oil (open to air)) was “sensitive” and the “MIC Visual (lowest concentration of antibiotic to significantly lower the fluorescent emissions)” value [4] was 16 mg/L. The “MIC Visual (lowest concentration of antibiotic to significantly lower the fluorescent emissions)” value [5] was >64 mg/L, the MIC [6] was > 64 mg/L and the MIC [7] was 8 mg/L (≈ 18.9 µM). For the same compound, the “susceptibility of E. coli” value [8, 9] was “resistant”, the “Relative Fluorescence at 4 hrs.” value ([8]; antibiotic 0.5 ug/mL) was 183 and the “Relative Fluorescence at 4 hrs.” value ([8]; antibiotic 1 ug/mL) was 197. For the same compound, the “Relative Fluorescence at 4 hrs.” value ([8]; antibiotic 2 ug/mL) was 195, the “Relative Fluorescence at 4 hrs.” value ([8]; antibiotic 4 ug/mL) was 160 and the “Relative Fluorescence at 4 hrs.” value ([8]; antibiotic 8 ug/mL) was 161.
